The target in this assay is T1, CK1α (Homo sapiens, UniProt P48729+Q96SW2).
T1 construct: expressed in transfected cells
Description: CK1α ePL degradation assay in MDS-L cells. The format is cell-based. The following applies: MDS-L cells expressing ePL-tagged CK1α; for DC50: concentration giving 50% CK1α degradation vs DMSO control; for Y: lowest measured CK1α level normalized to DMSO control. A digest of the protocol:
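MDS-L cells treated with compound in a 10-point, 3-fold series from 10 μM to 0.0005 μM at 37° C, 5% CO2 for the indicated times; CK1α measured by InCELL Hunter enzyme-fragment luminescence. Levels normalized to DMSO as percent of control; lowest level reached taken as Y value.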

Structures are written as SMILES.

In US11306101B2 (Celgene Corporation, priority 2019, dated 2022) one finds DC50 and Y data, which are given here for ten compounds.

T1 sequence (P48729 whole entry): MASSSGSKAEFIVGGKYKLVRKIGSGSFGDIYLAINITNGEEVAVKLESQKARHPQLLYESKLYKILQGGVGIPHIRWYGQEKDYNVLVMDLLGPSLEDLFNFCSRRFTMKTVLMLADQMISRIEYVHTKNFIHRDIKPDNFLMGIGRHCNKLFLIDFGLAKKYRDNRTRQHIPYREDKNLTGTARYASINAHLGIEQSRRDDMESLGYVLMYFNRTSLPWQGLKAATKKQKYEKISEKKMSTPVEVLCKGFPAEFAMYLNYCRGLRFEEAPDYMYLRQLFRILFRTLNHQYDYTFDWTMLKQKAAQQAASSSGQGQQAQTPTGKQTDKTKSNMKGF
T1 sequence (Q96SW2 whole entry): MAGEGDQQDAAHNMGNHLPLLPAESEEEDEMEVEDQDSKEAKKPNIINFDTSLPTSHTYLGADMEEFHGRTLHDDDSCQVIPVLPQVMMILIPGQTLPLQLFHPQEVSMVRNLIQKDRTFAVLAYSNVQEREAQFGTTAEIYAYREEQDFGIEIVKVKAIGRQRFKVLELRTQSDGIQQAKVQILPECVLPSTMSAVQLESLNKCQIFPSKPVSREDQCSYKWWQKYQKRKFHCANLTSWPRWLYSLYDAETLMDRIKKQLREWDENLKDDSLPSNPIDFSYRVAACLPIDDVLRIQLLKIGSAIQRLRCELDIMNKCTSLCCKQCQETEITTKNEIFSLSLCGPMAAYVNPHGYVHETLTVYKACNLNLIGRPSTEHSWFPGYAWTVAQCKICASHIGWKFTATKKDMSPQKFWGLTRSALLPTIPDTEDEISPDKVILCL
T1 sequence (Q16531 whole entry partner): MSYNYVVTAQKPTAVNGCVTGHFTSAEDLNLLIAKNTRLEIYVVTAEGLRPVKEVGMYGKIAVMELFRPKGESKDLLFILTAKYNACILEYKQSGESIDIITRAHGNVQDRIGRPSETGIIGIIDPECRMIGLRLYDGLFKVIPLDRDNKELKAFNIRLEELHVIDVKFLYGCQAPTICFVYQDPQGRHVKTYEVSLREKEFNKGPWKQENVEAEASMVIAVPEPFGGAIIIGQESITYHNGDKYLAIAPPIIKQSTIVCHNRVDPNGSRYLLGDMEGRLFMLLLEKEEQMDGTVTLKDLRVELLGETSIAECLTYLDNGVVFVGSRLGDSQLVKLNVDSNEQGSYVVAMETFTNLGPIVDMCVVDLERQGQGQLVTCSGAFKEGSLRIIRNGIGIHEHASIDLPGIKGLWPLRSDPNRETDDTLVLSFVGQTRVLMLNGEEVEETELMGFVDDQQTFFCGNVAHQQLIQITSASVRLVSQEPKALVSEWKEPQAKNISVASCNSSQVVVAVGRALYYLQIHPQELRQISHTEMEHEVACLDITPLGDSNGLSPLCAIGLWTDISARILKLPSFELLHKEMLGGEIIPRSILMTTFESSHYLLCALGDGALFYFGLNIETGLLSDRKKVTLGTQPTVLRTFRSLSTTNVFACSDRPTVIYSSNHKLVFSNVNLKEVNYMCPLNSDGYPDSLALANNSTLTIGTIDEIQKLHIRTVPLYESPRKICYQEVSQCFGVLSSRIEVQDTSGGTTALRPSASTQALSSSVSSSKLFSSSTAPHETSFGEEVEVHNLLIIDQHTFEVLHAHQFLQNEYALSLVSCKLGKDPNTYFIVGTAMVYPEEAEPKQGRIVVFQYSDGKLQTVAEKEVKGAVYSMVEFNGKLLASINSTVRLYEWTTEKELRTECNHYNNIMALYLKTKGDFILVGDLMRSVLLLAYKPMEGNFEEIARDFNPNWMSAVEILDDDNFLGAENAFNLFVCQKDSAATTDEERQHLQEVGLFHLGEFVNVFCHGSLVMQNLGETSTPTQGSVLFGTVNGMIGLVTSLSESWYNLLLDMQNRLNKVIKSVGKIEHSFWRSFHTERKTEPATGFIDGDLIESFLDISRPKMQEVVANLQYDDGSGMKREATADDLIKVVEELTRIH

Consider `O=C1CC[C@@H](N2Cc3cc(C(=O)N[C@H](c4ccc(F)cc4)C(F)(F)F)ccc3C2=O)C(=O)N1` [Example 104, 2-((R)-2,6-dioxopiperidin-3-yl)-1-oxo-N-((R)-2,2,2-trifluoro-1-(4-fluorophenyl)ethyl)isoindoline-5-carboxamide], for which the DC50 was below 100 nM and the Y result is “* (a Y value (shown as *) of 0<Y≤20%)”.
For the compound `O=C1CCC(N2Cc3c(ccc(C(=O)N[C@H](c4ccc(F)cc4F)C(F)(F)F)c3F)C2=O)C(=O)N1` (stereo partly drawn) [Example 105, N-((R)-1-(2,4-difluorophenyl)-2,2,2-trifluoroethyl)-2-(2,6-dioxopiperidin-3-yl)-4-fluoro-1-oxoisoindoline-5-carboxamide], the DC50 is below 100 nM and the Y result was “* (a Y value (shown as *) of 0<Y≤20%)”.
On to `O=C1CCC(N2Cc3cc(C(=O)N[C@H](c4ncccc4Cl)C(F)(F)F)ccc3C2=O)C(=O)N1` (stereo partly drawn) [Example 106, N-((R)-1-(3-chloropyridin-2-yl)-2,2,2-trifluoroethyl)-2-(2,6-dioxopiperidin-3-yl)-1-oxoisoindoline-5-carboxamide], for which the DC50 is below 100 nM and the Y result is “* (a Y value (shown as *) of 0<Y≤20%)”.
Regarding `O=C1CCC(N2Cc3c(ccc(C(=O)N[C@H](c4cccc(Cl)c4)C(F)(F)F)c3F)C2=O)C(=O)N1` (stereo partly drawn) [Example 107, N-((R)-1-(3-chlorophenyl)-2,2,2-trifluoroethyl)-2-(2,6-dioxopiperidin-3-yl)-4-fluoro-1-oxoisoindoline-5-carboxamide], the DC50 lay within 100 to 500 nM and the Y entry is “** (a Y value (shown as**) of 20%<Y≤35%)”.
Turning to `O=C1CCC(N2Cc3c(ccc(C(=O)N[C@H](c4cccc(F)c4)C(F)(F)F)c3F)C2=O)C(=O)N1` (stereo partly drawn) [Example 108, 2-(2,6-dioxopiperidin-3-yl)-4-fluoro-1-oxo-N-((R)-2,2,2-trifluoro-1-(3-fluorophenyl)ethyl)isoindoline-5-carboxamide], the DC50 lay in the range of 100 to 500 nM and the Y result is on record as “** (a Y value (shown as**) of 20%<Y≤35%)”.
The corresponding values for `O=C1CCC(N2Cc3cc(C(=O)N[C@H](c4ccc(Cl)cn4)C(F)(F)F)ccc3C2=O)C(=O)N1` (stereo partly drawn) [Example 109, N-((R)-1-(5-chloropyridin-2-yl)-2,2,2-trifluoroethyl)-2-(2,6-dioxopiperidin-3-yl)-1-oxoisoindoline-5-carboxamide] are below 100 nM and “* (a Y value (shown as *) of 0<Y≤20%)”.
The like results for `O=C1CCC(N2Cc3cc(C(=O)N[C@H](c4ncccc4F)C(F)(F)F)ccc3C2=O)C(=O)N1` (stereo partly drawn) [Example 110, 2-(2,6-dioxopiperidin-3-yl)-1-oxo-N-((R)-2,2,2-trifluoro-1-(3-fluoropyridin-2-yl)ethyl)isoindoline-5-carboxamide] were, in that order, below 100 nM and “* (a Y value (shown as *) of 0<Y≤20%)”.
The like results for `O=C1CCC(N2Cc3cc(C(=O)N[C@H](c4ccc(F)cc4)C(F)F)ccc3C2=O)C(=O)N1` (stereo partly drawn) [Example 111, N-((R)-2,2-difluoro-1-(4-fluorophenyl)ethyl)-2-(2,6-dioxopiperidin-3-yl)-1-oxoisoindoline-5-carboxamide] were, in that order, below 100 nM and “* (a Y value (shown as *) of 0<Y≤20%)”.
Consider `O=C1CCC(N2Cc3c(ccc(C(=O)N[C@H](c4ccc(F)cc4)C(F)F)c3F)C2=O)C(=O)N1` (stereo partly drawn) [Example 112, N-((R)-2,2-difluoro-1-(4-fluorophenyl)ethyl)-2-(2,6-dioxopiperidin-3-yl)-4-fluoro-1-oxoisoindoline-5-carboxamide], for which the DC50 is below 100 nM and the Y entry was “* (a Y value (shown as *) of 0<Y≤20%)”.
The like results for `O=C1CCC(N2Cc3c(ccc(C(=O)N[C@H](c4ccc(F)c(F)c4)C(F)(F)F)c3F)C2=O)C(=O)N1` (stereo partly drawn) [Example 113, N-((R)-1-(3,4-difluorophenyl)-2,2,2-trifluoroethyl)-2-(2,6-dioxopiperidin-3-yl)-4-fluoro-1-oxoisoindoline-5-carboxamide] were, in that order, 100 to 500 nM and “** (a Y value (shown as**) of 20%<Y≤35%)”.

The DC50 is the concentration giving 50% degradation. Higher therefore signals a less potent degrader.
